Measured values: PubChem BioAssay AID1259408 (Genetic Toxicology Data Bank (GENE-TOX), 2018)
The source made the active and inactive calls. The rule behind the calls is not given here.

Tested on: GENE-TOX genotoxicity assays, various organisms and cells
Assay: GENE-TOX mutagenicity studies
Settings: for call: Assay Type: In vivo carcinogenicity studies
[1] = Species/Cell Type: Mammalian polychromatic erythrocytes, Assay Type: Micronucleus test, chromosome aberrations, Assay Code: MNT+, Evaluation Type: Evaluation A (Pre-1980)
[2] = Species/Cell Type: Nonhuman, Assay Type: Sister-chromatid exchange (SCE) in vitro, Assay Code: SC2T, Evaluation Type: Evaluation B (Post-1980)
[3] = Species/Cell Type: Nonhuman, Assay Type: Sister-chromatid exchange (SCE) in vitro, Assay Code: SC2+D, Dose Response: With dose response, Evaluation Type: Evaluation B (Post-1980)
[4] = Species/Cell Type: Drosophila melanogaster, Assay Type: Sex-linked recessive lethal gene mutation, Assay Code: SRL+, Evaluation Type: Evaluation A (Pre-1980)
[5] = Species/Cell Type: Chinese hamster lung (V79) cells, Assay Type: Forward gene mutation at the HPRT or ouabain locus, Assay Code: V79-, Evaluation Type: Evaluation A (Pre-1980)
[6] = Species/Cell Type: Mammalian polychromatic erythrocytes, Assay Type: Micronucleus test, chromosome aberrations, Assay Code: MNT+, Evaluation Type: Evaluation B (Post-1980)
[7] = Species/Cell Type: Nonhuman, Assay Code: CCG+L, Evaluation Type: Evaluation A (Pre-1980)
[8] = Species/Cell Type: Salmonella typhimurium (one or more of the five standard strains: TA98, TA100, TA1535, TA1537, and TA1538), Assay Type: Histidine reverse gene mutation, Ames assay, Assay Code: SAL+*, Activation: With metabolic activation, Evaluation Type: Evaluation A (Pre-1980)
[9] = Species/Cell Type: Chinese hamster lung (V79) cells, Assay Type: Forward gene mutation at the HPRT or ouabain locus, Assay Code: V79+, Evaluation Type: Evaluation A (Pre-1980)
[10] = Species/Cell Type: Nonhuman, Assay Code: CCG+, Evaluation Type: Evaluation A (Pre-1980)
[11] = Species/Cell Type: Bacillus subtilis (H17 vs M45), Assay Type: Rec-assay, spot test, DNA effects (bacterial DNA repair), Assay Code: REWT, Evaluation Type: Evaluation A (Pre-1980)

In the case of `S=c1nc[nH]c2nc[nH]c12`, the mutagenic call (Species/Cell Type: Escherichia coli polA (W3119 vs P3478), Assay Type: Rec-assay, DNA effects (bacterial DNA repair), Assay Code: RE1+, Evaluation Type: Evaluation A (Pre-1980)) is reported as “active; positive”, the mutagenic call (Species/Cell Type: Mammalian germ cells, Sex: Male, Assay Type: Chromosome aberrations in vivo, Assay Code: CY9+, Evaluation Type: Evaluation A (Pre-1980)) is reported as “active; positive” and the mutagenic call [1] is reported as “active; positive”. The mutagenic call (Species/Cell Type: Mouse (C3H/10T1/2) cells, Assay Type: Cell transformation, Assay Code: CTH-, Evaluation Type: Evaluation A (Pre-1980)) was “inactive; negative”, the mutagenic call (Species/Cell Type: Mouse, Sex: Male, Assay Type: Heritable translocation test, chromosome aberrations, Assay Code: HTT-, Evaluation Type: Evaluation A (Pre-1980)) was “inactive; negative” and the mutagenic call (Species/Cell Type: Nonhuman bone marrow, Assay Type: Chromosome aberrations, in vivo, Assay Code: CY#+D, Dose Response: With dose response, Evaluation Type: Evaluation A (Pre-1980)) was “active; positive”. The call (Species/Cell Type: Nonhuman, Assay Code: CCGT, Evaluation Type: Evaluation A (Pre-1980)) was “no conclusion”, the mutagenic call [2] was “no conclusion” and the mutagenic call (Species/Cell Type: Rodents, Sex: Male, Assay Type: Dominant lethal test, Assay Code: DLT+, Evaluation Type: Evaluation A (Pre-1980)) was “active; positive”.

In the case of `N[C@@H](CCC(=O)N[C@@H](CS)C(=O)NCC(=O)O)C(=O)O`, the mutagenic call (Species/Cell Type: Human lymphocytes, Assay Type: Sister-chromatid exchange (SCE) in vitro, Assay Code: SCLT, Evaluation Type: Evaluation B (Post-1980)) is reported as “no conclusion”, the mutagenic call (Species/Cell Type: Human, Assay Type: Sister-chromatid exchange (SCE) in vitro, Assay Code: SC1T, Evaluation Type: Evaluation B (Post-1980)) is reported as “no conclusion” and the mutagenic call [3] is reported as “active; positive”.

For `C=CCN=C=S`, the mutagenic call [4] was “active; positive” and the mutagenic call (Species/Cell Type: Drosophila melanogaster, Assay Type: Sex-linked recessive lethal gene mutation, Assay Code: SRL-, Evaluation Type: Evaluation A (Pre-1980)) was “inactive; negative”.

For `CN(C)c1ccc2cc3ccc(=[N+](C)C)cc-3sc2c1`, the mutagenic call (Species/Cell Type: Saccharomyces cerevisiae, Assay Type: Reverse gene mutation, Assay Code: YER-, Evaluation Type: Evaluation A (Pre-1980)) was “inactive; negative”.

With `O=c1c(=O)c2c3ccccc3cc3ccc4cccc1c4c32` the mutagenic call [5] was “inactive; negative” and the mutagenic call (Species/Cell Type: Salmonella typhimurium (one or more of the five standard strains: TA98, TA100, TA1535, TA1537, and TA1538), Assay Type: Histidine reverse gene mutation, Ames assay, Assay Code: SALT, Evaluation Type: Evaluation A (Pre-1980)) was “no conclusion”.

For `C=Cc1ccccc1`, the mutagenic call [5] was “inactive; negative”, the mutagenic call [4] was “active; positive” and the mutagenic call (Species/Cell Type: Human diploid fibroblasts, Assay Type: Unscheduled DNA synthesis (UDS) in vitro, DNA effects, Assay Code: UDH-*, Activation: With metabolic activation, Evaluation Type: Evaluation A (Pre-1980)) was “inactive; negative”. The mutagenic call (Species/Cell Type: Human lymphocytes or leukocytes, Assay Type: Chromosome aberrations in vivo, Assay Code: CY8+, Evaluation Type: Evaluation A (Pre-1980)) was “active; positive”, the mutagenic call (Species/Cell Type: Human lymphocytes, Assay Type: Micronucleus test in vitro, chromosome aberrations, Assay Code: MN7+, Evaluation Type: Evaluation A (Pre-1980)) was “active; positive” and the mutagenic call (Species/Cell Type: Human lymphocytes, Assay Type: Sister-chromatid exchange (SCE) in vitro, Assay Code: SCL+D, Dose Response: With dose response, Evaluation Type: Evaluation B (Post-1980)) was “active; positive”. The mutagenic call (Species/Cell Type: Human lymphocytes, Assay Type: Sister-chromatid exchange (SCE) in vivo, Assay Code: SCY+, Evaluation Type: Evaluation B (Post-1980)) was “active; positive”, the mutagenic call (Species/Cell Type: Human, Assay Type: Sister-chromatid exchange (SCE) in vitro, Assay Code: SC1+D, Dose Response: With dose response, Evaluation Type: Evaluation B (Post-1980)) was “active; positive” and the mutagenic call [6] was “active; positive”. For the same compound, the call [7] was “active; positive”, the mutagenic call (Species/Cell Type: Nonhuman, Assay Type: Sister-chromatid exchange (SCE) in vivo, Assay Code: SC3+D, Dose Response: With dose response, Evaluation Type: Evaluation B (Post-1980)) was “active; positive” and the mutagenic call (Species/Cell Type: Plant, Assay Type: Micronucleus test, chromosome aberrations, Assay Code: MNP+, Evaluation Type: Evaluation A (Pre-1980)) was “active; positive”. For the same compound, the mutagenic call (Species/Cell Type: Saccharomyces cerevisiae, Assay Type: Forward and reverse gene mutation, mitotic recombination and gene conversion, host-mediated assay, Assay Code: HME+, Evaluation Type: Evaluation A (Pre-1980)) was “active; positive”, the mutagenic call (Species/Cell Type: Saccharomyces cerevisiae, Assay Type: Mitotic recombination or gene conversion, Assay Code: YEC+*, Activation: With metabolic activation, Evaluation Type: Evaluation A (Pre-1980)) was “active; positive” and the mutagenic call [8] was “active; positive”. For the same compound, the mutagenic call (Species/Cell Type: Schizosaccharomyces pombe, Assay Type: Forward gene mutation, Assay Code: YEYT, Evaluation Type: Evaluation A (Pre-1980)) was “no conclusion” and the mutagenic call (Species/Cell Type: Syrian hamster embryo (SA7/SHE) cells, Assay Type: Cell transformation, viral enhanced, Assay Code: CT7-, Evaluation Type: Evaluation A (Pre-1980)) was “inactive; negative”.

With `BrCc1c2ccccc2cc2c1ccc1ccccc12` the mutagenic call [9] was “active; positive”, the mutagenic call [4] was “active; positive” and the mutagenic call (Species/Cell Type: Escherichia coli WP2, Assay Type: Tryptophan reverse gene mutation, Assay Code: WP2+D, Dose Response: With dose response, Evaluation Type: Evaluation A (Pre-1980)) was “active; positive”. For the same compound, the mutagenic call (Species/Cell Type: Escherichia coli WP2 UVRA, Assay Type: Tryptophan reverse gene mutation, Assay Code: WPU+D, Dose Response: With dose response, Evaluation Type: Evaluation A (Pre-1980)) was “active; positive”, the mutagenic call (Species/Cell Type: Human diploid fibroblasts, Assay Type: Unscheduled DNA synthesis (UDS) in vitro, DNA effects, Assay Code: UDH+, Evaluation Type: Evaluation A (Pre-1980)) was “active; positive” and the call [10] was “active; positive”. The mutagenic call [3] was “active; positive” and the mutagenic call (Species/Cell Type: Syrian hamster embryo (SHE) cells, Assay Type: Cell transformation, clonal assay, Assay Code: CTC-, Evaluation Type: Evaluation A (Pre-1980)) was “inactive; negative”.

With `c1cncc(C2=NCCC2)c1` the mutagenic call [2] was “no conclusion”.

With `CC1CCN(N=O)CC1` the mutagenic call (Species/Cell Type: Drosophila melanogaster, Assay Type: Aneuploidy, partial sex chromosome loss, chromosome aberrations, Assay Code: DAPT, Evaluation Type: Evaluation A (Pre-1980)) was “no conclusion”, the mutagenic call (Species/Cell Type: Drosophila melanogaster, Assay Type: Aneuploidy, whole sex chromosome loss, chromosome aberrations, Assay Code: DACT, Evaluation Type: Evaluation A (Pre-1980)) was “no conclusion” and the mutagenic call [4] was “active; positive”. The mutagenic call (Species/Cell Type: Saccharomyces cerevisiae, Assay Type: Forward gene mutation, Assay Code: YEF+*, Activation: With metabolic activation, Evaluation Type: Evaluation A (Pre-1980)) was “active; positive” and the mutagenic call [8] was “active; positive”.

With `CCCC(=O)Nc1ccc(OCC(O)CNC(C)C)c(C(C)=O)c1` (stereo not given) the mutagenic call [6] was “active; positive”.

In the case of `NNc1ccccc1`, the mutagenic call [6] is reported as “active; positive”.

For `C/[N+]([O-])=N/CO`, the mutagenic call [9] was “active; positive”, the mutagenic call [4] was “active; positive” and the call [10] was “active; positive”. For the same compound, the mutagenic call (Species/Cell Type: Salmonella typhimurium, Assay Type: Forward and reverse gene mutation, body fluid assay, Assay Code: BFU+, Evaluation Type: Evaluation A (Pre-1980)) was “active; positive” and the mutagenic call (Species/Cell Type: Syrian hamster embryo (SHE) cells, Assay Type: Cell transformation, clonal assay, Assay Code: CTC+, Evaluation Type: Evaluation A (Pre-1980)) was “active; positive”.

With `Cc1ccc2cccc([N+](=O)[O-])c2n1` the mutagenic call (Species/Cell Type: Salmonella typhimurium (one or more of the five standard strains: TA98, TA100, TA1535, TA1537, and TA1538), Assay Type: Histidine reverse gene mutation, Ames assay, Assay Code: SAL+, Evaluation Type: Evaluation A (Pre-1980)) was “active; positive”.

In the case of `O=C(Cl)c1ccccc1`, the mutagenic call [11] is reported as “no conclusion”.

With `COc1nc(OC)nc(N2CC2)n1` the mutagenic call (Species/Cell Type: Allium cepa, Assay Type: Chromosome aberrations, Assay Code: ALC+, Evaluation Type: Evaluation A (Pre-1980)) was “active; positive”.

In the case of `O=S(=O)(O)c1ccc(N=Nc2cc(S(=O)(=O)O)c3ccccc3c2O)c2ccccc12`, the mutagenic call [11] is reported as “no conclusion”, the call (Species/Cell Type: Nonhuman, Assay Code: CCG-, Evaluation Type: Evaluation A (Pre-1980)) is reported as “inactive; negative” and the mutagenic call (Species/Cell Type: Saccharomyces cerevisiae, Assay Type: Mitotic recombination or gene conversion, Assay Code: YEC-, Evaluation Type: Evaluation A (Pre-1980)) is reported as “inactive; negative”. For the same compound, the mutagenic call (Species/Cell Type: Salmonella typhimurium (one or more of the five standard strains: TA98, TA100, TA1535, TA1537, and TA1538), Assay Type: Histidine reverse gene mutation, Ames assay, Assay Code: SAL-, Evaluation Type: Evaluation A (Pre-1980)) was “inactive; negative”.

For `CCN(CC)N=Nc1ccccc1`, the mutagenic call [1] was “active; positive” and the call [7] was “active; positive”.

With `CC1CN(N=O)CC(C)N1N=O` (stereo not given) the mutagenic call [8] was “active; positive”.
